Source: US20240383875A1, “Benzimidazole Pyridine Derivatives” (Hoffmann-La Roche Inc., priority 2022, published 2024)

Columns and labels:
Type in all cases: biochemical
SIK2 = SIK2 (Homo sapiens, UniProt Q9H0K1); test: Enzymatic activity assay SIK2, RapidFire mass spectrometry (phosphorylation of CHK-peptide); conditions: RapidFire MS, inhibition of SIK2; read-out: SIK2 RF IC50
Summary of the method: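 SIK2 (0.5 nM) in pH 7.0 HEPES buffer with 10 mM Mg acetate phosphorylates CHK-peptide (10 μM solution) with 100 μM ATP solution, 45 min ambient, then formic acid quench.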

SIK1 = SIK1 (Homo sapiens, UniProt P57059); test: Enzymatic activity assay SIK1, RapidFire mass spectrometry (phosphorylation of CHK-peptide); conditions: RapidFire MS, inhibition of SIK1; read-out: SIK1 RF IC50
Chain of SIK1 (P57059 whole entry): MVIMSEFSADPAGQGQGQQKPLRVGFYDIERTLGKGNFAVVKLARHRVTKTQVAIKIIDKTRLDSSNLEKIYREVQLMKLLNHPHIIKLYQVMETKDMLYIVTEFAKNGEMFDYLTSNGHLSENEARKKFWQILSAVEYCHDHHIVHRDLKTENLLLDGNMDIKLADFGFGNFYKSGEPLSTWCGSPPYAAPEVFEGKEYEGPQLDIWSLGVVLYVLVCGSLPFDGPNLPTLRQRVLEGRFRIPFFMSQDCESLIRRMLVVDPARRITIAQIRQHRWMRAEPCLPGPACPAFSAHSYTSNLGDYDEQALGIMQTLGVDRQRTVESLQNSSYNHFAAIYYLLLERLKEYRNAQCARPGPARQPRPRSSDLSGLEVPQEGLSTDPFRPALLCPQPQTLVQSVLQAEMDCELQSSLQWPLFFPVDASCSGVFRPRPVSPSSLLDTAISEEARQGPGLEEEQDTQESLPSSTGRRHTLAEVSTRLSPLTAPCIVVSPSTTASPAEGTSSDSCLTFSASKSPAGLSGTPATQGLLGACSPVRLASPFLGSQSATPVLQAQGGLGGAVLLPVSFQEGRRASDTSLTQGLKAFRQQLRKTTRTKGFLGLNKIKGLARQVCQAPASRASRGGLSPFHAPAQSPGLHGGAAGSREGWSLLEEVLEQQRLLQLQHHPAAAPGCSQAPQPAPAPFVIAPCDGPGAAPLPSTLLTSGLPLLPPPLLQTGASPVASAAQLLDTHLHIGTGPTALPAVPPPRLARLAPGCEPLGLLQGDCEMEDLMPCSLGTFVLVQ
Summary of the method: (§1)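 Compounds (12-point, 3-fold, generally 30 μM to 170 pM) were pre-incubated 30 min at ambient temperature with SIK1 (5 nM), SIK2 (0.5 nM) or SIK3 (1.5 nM) in HEPES pH 7.0/magnesium acetate buffer. CHK-peptide (10 μM solution) and ATP (100 μM solution) were then added for 45 min before formic acid quench.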

SIK3 = SIK3 (Homo sapiens, UniProt Q9Y2K2); test: Enzymatic activity assay SIK3, RapidFire mass spectrometry (phosphorylation of CHK-peptide); conditions: RapidFire MS, inhibition of SIK3; read-out: SIK3 RF IC50
Chain of SIK3 (Q9Y2K2 whole entry): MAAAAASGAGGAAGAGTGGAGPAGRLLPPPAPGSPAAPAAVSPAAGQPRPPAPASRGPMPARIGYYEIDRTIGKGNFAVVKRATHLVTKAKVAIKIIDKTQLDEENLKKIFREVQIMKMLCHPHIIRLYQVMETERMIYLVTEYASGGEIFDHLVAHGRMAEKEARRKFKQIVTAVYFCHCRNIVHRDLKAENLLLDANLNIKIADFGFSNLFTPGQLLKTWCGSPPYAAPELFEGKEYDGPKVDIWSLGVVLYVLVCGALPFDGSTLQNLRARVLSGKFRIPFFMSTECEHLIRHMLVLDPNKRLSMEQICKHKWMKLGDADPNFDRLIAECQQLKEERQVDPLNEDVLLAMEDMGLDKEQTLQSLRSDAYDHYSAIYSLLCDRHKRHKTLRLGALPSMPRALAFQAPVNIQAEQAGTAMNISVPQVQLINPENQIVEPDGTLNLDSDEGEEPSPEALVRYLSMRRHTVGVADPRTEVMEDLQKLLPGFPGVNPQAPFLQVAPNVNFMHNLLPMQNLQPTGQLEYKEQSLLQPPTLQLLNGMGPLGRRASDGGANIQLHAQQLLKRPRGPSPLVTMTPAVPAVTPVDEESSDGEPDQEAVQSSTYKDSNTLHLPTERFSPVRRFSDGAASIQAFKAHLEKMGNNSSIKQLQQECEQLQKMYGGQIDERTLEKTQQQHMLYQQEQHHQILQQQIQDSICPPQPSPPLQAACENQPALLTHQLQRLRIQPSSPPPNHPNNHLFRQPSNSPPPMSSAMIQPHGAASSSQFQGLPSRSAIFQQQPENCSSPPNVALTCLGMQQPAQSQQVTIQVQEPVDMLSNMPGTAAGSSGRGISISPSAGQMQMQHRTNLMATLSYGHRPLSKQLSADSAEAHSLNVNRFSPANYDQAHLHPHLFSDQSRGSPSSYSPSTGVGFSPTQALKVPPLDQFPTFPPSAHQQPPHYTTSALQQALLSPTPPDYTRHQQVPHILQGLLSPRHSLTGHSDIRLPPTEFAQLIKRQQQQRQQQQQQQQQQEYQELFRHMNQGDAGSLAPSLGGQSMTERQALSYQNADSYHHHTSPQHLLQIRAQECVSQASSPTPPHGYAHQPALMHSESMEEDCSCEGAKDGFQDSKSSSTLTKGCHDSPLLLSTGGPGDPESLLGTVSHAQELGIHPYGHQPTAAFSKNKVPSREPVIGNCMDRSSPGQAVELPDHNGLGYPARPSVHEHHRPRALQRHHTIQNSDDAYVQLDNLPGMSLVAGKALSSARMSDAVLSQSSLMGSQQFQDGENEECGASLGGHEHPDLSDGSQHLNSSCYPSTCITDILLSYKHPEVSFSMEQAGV
Summary of the method: as §1

Chain of SIK2 (Q9H0K1 whole entry): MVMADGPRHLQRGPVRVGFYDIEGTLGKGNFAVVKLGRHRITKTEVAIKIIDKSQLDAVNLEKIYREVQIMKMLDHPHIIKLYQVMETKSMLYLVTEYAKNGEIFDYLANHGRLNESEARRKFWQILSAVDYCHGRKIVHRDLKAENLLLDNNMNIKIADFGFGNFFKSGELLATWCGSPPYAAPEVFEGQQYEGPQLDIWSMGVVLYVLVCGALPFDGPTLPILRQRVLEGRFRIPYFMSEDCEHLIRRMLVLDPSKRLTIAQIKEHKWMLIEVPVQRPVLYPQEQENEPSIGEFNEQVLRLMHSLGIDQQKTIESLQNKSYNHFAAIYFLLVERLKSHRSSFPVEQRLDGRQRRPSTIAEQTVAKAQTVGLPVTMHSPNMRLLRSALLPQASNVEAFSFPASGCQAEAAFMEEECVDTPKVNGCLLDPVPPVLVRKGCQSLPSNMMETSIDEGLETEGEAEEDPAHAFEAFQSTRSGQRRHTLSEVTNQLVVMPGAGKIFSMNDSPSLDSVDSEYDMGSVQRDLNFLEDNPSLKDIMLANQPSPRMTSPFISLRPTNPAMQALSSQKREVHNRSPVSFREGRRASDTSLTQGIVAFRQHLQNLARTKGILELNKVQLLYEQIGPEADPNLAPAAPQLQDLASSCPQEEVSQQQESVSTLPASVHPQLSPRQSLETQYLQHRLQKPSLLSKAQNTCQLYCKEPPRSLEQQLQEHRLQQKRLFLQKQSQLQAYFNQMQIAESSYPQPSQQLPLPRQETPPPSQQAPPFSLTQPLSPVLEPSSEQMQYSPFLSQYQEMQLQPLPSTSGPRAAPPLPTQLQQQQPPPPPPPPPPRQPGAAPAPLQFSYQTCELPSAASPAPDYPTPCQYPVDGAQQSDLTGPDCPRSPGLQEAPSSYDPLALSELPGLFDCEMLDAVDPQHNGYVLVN

Compound | IC50 (SIK2) [nM] | IC50 (SIK1) [nM] | IC50 (SIK3) [nM]
Cc1ccc(Nc2ccc3c(c2)ncn3-c2ccc(C(C)O)c(N3CCC(C(F)F)C3)n2)nn1 (stereo not drawn) [Example 298, 1-[2-[3-(difluoromethyl)pyrrolidin-1-yl]-6-[5-[(6-methylpyridazin-3-yl)amino]benzimidazol-1-yl]-3-pyridyl]ethanol] | 27.4 | 1510 | 3
Cc1ccc(Nc2ccc3c(c2)ncn3-c2ccc(C(C)O)c(N3CCC4(C3)CC4(F)F)n2)nn1 (stereo not drawn) [Example 299, 1-[2-(2,2-difluoro-5-azaspiro[2.4]heptan-5-yl)-6-[5-[(6-methylpyridazin-3-yl)amino]benzimidazol-1-yl]-3-pyridyl]ethanol] | 2.4 | 273 | 0.7
Cc1ccc(Nc2cc3ncn(-c4ccc([C@H](C)O)c(-n5nc(C(F)F)cc5C)n4)c3cc2F)nn1 [Example 301, (1S)-1-[2-[3-(difluoromethyl)-5-methyl-pyrazol-1-yl]-6-[6-fluoro-5-[(6-methylpyridazin-3-yl)amino]benzimidazol-1-yl]-3-pyridyl]ethanol] | 3.5 | 664 | 2
Cc1ccc(Nc2cc3ncn(-c4ccc(C(C)O)c(-c5cn(CC(F)(F)F)nc5C)n4)c3cc2F)nn1 (stereo not drawn) [Example 302, 1-[6-[6-fluoro-5-[(6-methylpyridazin-3-yl)amino]benzimidazol-1-yl]-2-[3-methyl-1-(2,2,2-trifluoroethyl)pyrazol-4-yl]-3-pyridyl]ethanol] | 0.7 | 409 | 1.1
Cc1ccc(Nc2ccc3c(c2)ncn3-c2ccc(C(C)O)c(-n3nc(C(F)F)cc3C#N)n2)nn1 (stereo not drawn) [Example 303, 5-(difluoromethyl)-2-[3-(1-hydroxyethyl)-6-[5-[(6-methylpyridazin-3-yl)amino]benzimidazol-1-yl]-2-pyridyl]pyrazole-3-carbonitrile] | 0.4 | 30 | 0.4
Cc1cc(C#N)nn1-c1nc(-n2cnc3cc(Nc4ccc(C5CCCN5C5COC5)nn4)ccc32)ccc1C(C)O (stereo not drawn) [Example 304, 1-[3-(1-hydroxyethyl)-6-[5-[[6-[1-(oxetan-3-yl)pyrrolidin-2-yl]pyridazin-3-yl]amino]benzimidazol-1-yl]-2-pyridyl]-5-methyl-pyrazole-3-carbonitrile] | 95.4 | 273 | 37.2
Cc1ccc(Nc2ccc3c(c2)ncn3-c2ccc(C(C)O)c(-n3nc(C#N)c4c3C(F)(F)CNC4)n2)nn1 (stereo not drawn) [Example 305, 7,7-difluoro-1-[3-(1-hydroxyethyl)-6-[5-[(6-methylpyridazin-3-yl)amino]benzimidazol-1-yl]-2-pyridyl]-5,6-dihydro-4~{H}-pyrazolo[4,3-c]pyridine-3-carbonitrile] | 1.7 | 155 | 2.1
Cc1ccc(Nc2ccc3c(c2)ncn3-c2ccc(C(C)O)c(-n3nc(C#N)cc3C(F)F)n2)nn1 (stereo not drawn) [Example 306, 5-(difluoromethyl)-1-[3-(1-hydroxyethyl)-6-[5-[(6-methylpyridazin-3-yl)amino]benzimidazol-1-yl]-2-pyridyl]pyrazole-3-carbonitrile] | 1.6 | 208 | 0.7
Cc1cc(C(F)F)nn1-c1nc(-n2cnc3cc(Nc4cccnn4)c(F)cc32)ccc1[C@H](C)O [Example 307, (1S)-1-[2-[3-(difluoromethyl)-5-methyl-pyrazol-1-yl]-6-[6-fluoro-5-(pyridazin-3-ylamino)benzimidazol-1-yl]-3-pyridyl]ethanol] | 7.8 | 679 | 2.8
Cc1ccc(Nc2ccc3c(c2)ncn3-c2ccc(C(C)O)c(-c3nn(CC(F)(F)F)nc3C)n2)nn1 (stereo not drawn) [Example 308, 1-[6-[5-[(6-methylpyridazin-3-yl)amino]benzimidazol-1-yl]-2-[5-methyl-2-(2,2,2-trifluoroethyl)triazol-4-yl]-3-pyridyl]ethanol] | 0.4 | 58 | 0.4
Cc1ccc(Nc2ccc3c(c2)ncn3-c2ccc(C(C)O)c(-n3nc(C#N)c(C)c3C)n2)nn1 (stereo not drawn) [Example 309, 1-[3-(1-hydroxyethyl)-6-[5-[(6-methylpyridazin-3-yl)amino]benzimidazol-1-yl]-2-pyridyl]-4,5-dimethyl-pyrazole-3-carbonitrile] | 0.3 | 27 | 0.4

Continued, values first:

IC50 (SIK2) [nM] | IC50 (SIK1) [nM] | IC50 (SIK3) [nM] | Compound
1.1 | 93 | 0.5 | Cc1cc(C#N)nn1-c1nc(-n2cnc3cc(Nc4nncc5c4OCCN5C)ccc32)ccc1C(C)O (stereo not drawn) [Example 310, 1-[3-(1-hydroxyethyl)-6-[5-[(4-methyl-2,3-dihydropyridazino[4,5-b][1,4]oxazin-8-yl)amino]benzimidazol-1-yl]-2-pyridyl]-5-methyl-pyrazole-3-carbonitrile]
0.3 | 17 | 0.3 | Cc1ccc(Nc2ccc3c(c2)ncn3-c2ccc(C(C)O)c(-c3nnn(CC(F)(F)F)c3C)n2)nn1 (stereo not drawn) [Example 311, 1-[6-[5-[(6-methylpyridazin-3-yl)amino]benzimidazol-1-yl]-2-[5-methyl-1-(2,2,2-trifluoroethyl)triazol-4-yl]-3-pyridyl]ethanol]
79.6 | 250 | 85.6 | Cc1cc(C#N)nn1-c1nc(-n2cnc3cc(N4CCCC4C(=O)N(C)C)ccc32)ccc1C(C)O (stereo not drawn) [Example 312, 1-[1-[6-(3-cyano-5-methyl-pyrazol-1-yl)-5-(1-hydroxyethyl)-2-pyridyl]benzimidazol-5-yl]-N,N-dimethyl-pyrrolidine-2-carboxamide]
1.1 | 138 | 1.4 | Cc1ccc(Nc2ccc3c(c2)ncn3-c2ccc(C(C)O)c(-c3cn(CC(F)F)nc3C)n2)nn1 (stereo not drawn) [Example 313, 1-[2-[1-(2,2-difluoroethyl)-3-methyl-pyrazol-4-yl]-6-[5-[(6-methylpyridazin-3-yl)amino]benzimidazol-1-yl]-3-pyridyl]ethanol]
52.4 | 70 | 65.1 | Cc1ccc(Nc2cc3c(cc2F)ncn3-c2ccc(CO)c(-n3nc(C#N)cc3C)n2)nn1 [Example 314, 1-[6-[5-fluoro-6-[(6-methylpyridazin-3-yl)amino]benzimidazol-1-yl]-3-(hydroxymethyl)-2-pyridyl]-5-methyl-pyrazole-3-carbonitrile]
7.3 | 1090 | 2.9 | Cc1ccc(Nc2ccc3c(c2)ncn3-c2ccc(CO)c(-c3cn(CC(F)(F)F)nc3C)n2)nn1 [Example 315, [6-[5-[(6-methylpyridazin-3-yl)amino]benzimidazol-1-yl]-2-[3-methyl-1-(2,2,2-trifluoroethyl)pyrazol-4-yl]-3-pyridyl]methanol]
15.1 | 975 | 4.6 | Cc1ccc(Nc2ccc3c(c2)ncn3-c2ccc(CO)c(-c3cnn(CC(F)(F)F)c3C)n2)nn1 [Example 316, [6-[5-[(6-methylpyridazin-3-yl)amino]benzimidazol-1-yl]-2-[5-methyl-1-(2,2,2-trifluoroethyl)pyrazol-4-yl]-3-pyridyl]methanol]
7.6 | 961 | 2.6 | Cc1cc(C(F)F)nn1-c1nc(-n2cnc3cc(Nc4cc5c(nn4)CCOC5)ccc32)ccc1CO [Example 317, [2-[3-(difluoromethyl)-5-methyl-pyrazol-1-yl]-6-[5-(7,8-dihydro-5H-pyrano[4,3-c]pyridazin-3-ylamino)benzimidazol-1-yl]-3-pyridyl]methanol]
50.1 | 327 | 65 | Cc1cc(C(F)F)nn1-c1nc(-n2cnc3cc(N4C[C@H]5OCCN(C)[C@H]5C4)ccc32)ccc1CO [Example 318, [6-[5-[(4aS,7aR)-4-methyl-2,3,4a,5,7,7a-hexahydropyrrolo[3,4-b][1,4]oxazin-6-yl]benzimidazol-1-yl]-2-[3-(difluoromethyl)-5-methyl-pyrazol-1-yl]-3-pyridyl]methanol]
6.7 | 2120 | 7 | Cc1ccc(Nc2cc3ncn(-c4ccc(CO)c(-n5nc(C(F)F)cc5C)n4)c3cc2F)nn1 [Example 319, [2-[3-(difluoromethyl)-5-methyl-pyrazol-1-yl]-6-[6-fluoro-5-[(6-methylpyridazin-3-yl)amino]benzimidazol-1-yl]-3-pyridyl]methanol]
65.3 | 4860 | 9.5 | Cc1ccc(Nc2ccc3c(c2)ncn3-c2ccc(C(C)O)c(N3CCOC(C(F)(F)F)C3)n2)nn1 (stereo not drawn) [Example 320, 1-[6-[5-[(6-methylpyridazin-3-yl)amino]benzimidazol-1-yl]-2-[2-(trifluoromethyl)morpholin-4-yl]-3-pyridyl]ethanol]
19.2 | 1100 | 3.5 | Cc1ccc(Nc2ccc3c(c2)ncn3-c2ccc(C(C)O)c(N3CC4CC4(C#N)C3)n2)nn1 (stereo not drawn) [Example 321, 3-[3-(1-hydroxyethyl)-6-[5-[(6-methylpyridazin-3-yl)amino]benzimidazol-1-yl]-2-pyridyl]-3-azabicyclo[3.1.0]hexane-1-carbonitrile]
16.3 | 966 | 2.4 | Cc1ccc(Nc2ccc3c(c2)ncn3-c2ccc(C(C)O)c(N3CC4CC3CC4(F)F)n2)nn1 (stereo not drawn) [Example 322, 1-[2-(5,5-difluoro-2-azabicyclo[2.2.1]heptan-2-yl)-6-[5-[(6-methylpyridazin-3-yl)amino]benzimidazol-1-yl]-3-pyridyl]ethanol]
